Experimental data from US20240158446A1, “CYCLIC COMPOUND HAVING SELECTIVE INHIBITORY ACTION ON KRAS OVER HRAS AND NRAS” (CHUGAI SEIYAKU KABUSHIKI KAISHA, priority 2021, published 2024).
Read-outs that look alike come from different tables or passages of the source. *1 amine or outer side, *2 acyl side, *3 side chain or, on linkers, in order; H or OH if unused. Where a SMILES comes first, the peptide text is derived from it. Bridges are numbered along the chain shown (N, C = ends). [ ]: non-standard residue; d: D form. The star is where a group is joined. hPhe(3,5-F2-4-CF3) = N[C@@H](CCc1cc(F)c(C(F)(F)F)c(F)c1)C(=O)O; hPhe(3-Cl-4-CF3) = N[C@@H](CCc1ccc(C(F)(F)F)c(Cl)c1)C(=O)O; X17 = CCCCN([C@@H](Cc1ccc(C(F)(F)F)cc1)C(=O)[*:2])[*:1]; NPrPhe(4-CF3) = CCCN[C@@H](Cc1ccc(C(F)(F)F)cc1)C(=O)O; X10 = C=CCN([C@@H](Cc1ccc(C)cc1)C(=O)[*:2])[*:1]; X13 = O=C([C@@H](N[*:1])C1CC(F)(F)C1)[*:2]; NMeGly(cPent) = CN[C@H](C(=O)O)C1CCCC1; Pro(4,4-F2) = O=C(O)[C@@H]1CC(F)(F)CN1; Gly(cPent) = N[C@H](C(=O)O)C1CCCC1; NMeAllylGly = C=CC[C@H](NC)C(=O)O; NMeD = CN[C@@H](CC(=O)O)C(=O)O; NMeL = CN[C@@H](CC(C)C)C(=O)O; Morpholide = C1CN(*)CCO1; NMeA = CN[C@@H](C)C(=O)O; Ac5c = NC1(C(=O)O)CCCC1; Aze = O=C(O)[C@@H]1CCN1; Ac4c = NC1(C(=O)O)CCC1; NEtG = CCNCC(=O)O; Sar = CNCC(=O)O

Key:
[1] = target: GDP-bound KRAS wild-type protein (Homo sapiens, UniProt P01116); assay: Binding to KRAS by surface plasmon resonance (SPR), Single Cycle Kinetics; conditions: GDP-bound KRAS wild-type protein, read-out: KRAS KD
[2] = target: GDP-bound NRAS wild-type protein (Homo sapiens, UniProt P01111); assay: Binding to NRAS by surface plasmon resonance (SPR), Single Cycle Kinetics; conditions: SPR, GDP-bound NRAS wild-type protein vs GDP-bound KRAS wild-type protein
[3] = target: GDP-bound HRAS wild-type protein (Homo sapiens, UniProt P01112); assay: Binding to HRAS by surface plasmon resonance (SPR), Single Cycle Kinetics; conditions: SPR, GDP-bound HRAS wild-type protein vs GDP-bound KRAS wild-type protein
[4] = SPR, Single Cycle Kinetics, 1:1 binding model
[5] = SPR Single Cycle Kinetics, 1:1 binding model

GDP-bound NRAS wild-type protein, sequence (P01111 whole entry): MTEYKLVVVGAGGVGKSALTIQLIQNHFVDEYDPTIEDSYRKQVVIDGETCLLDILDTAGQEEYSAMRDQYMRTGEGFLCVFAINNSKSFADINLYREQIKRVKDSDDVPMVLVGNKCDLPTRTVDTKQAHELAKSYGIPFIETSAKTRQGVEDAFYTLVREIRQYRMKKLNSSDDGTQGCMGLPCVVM
GDP-bound KRAS wild-type protein, sequence (P01116 whole entry): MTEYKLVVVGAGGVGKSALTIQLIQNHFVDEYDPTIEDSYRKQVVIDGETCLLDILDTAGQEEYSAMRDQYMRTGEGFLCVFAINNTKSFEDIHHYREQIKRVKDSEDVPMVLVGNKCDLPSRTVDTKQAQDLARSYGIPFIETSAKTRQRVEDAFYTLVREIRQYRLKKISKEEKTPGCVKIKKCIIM
GDP-bound HRAS wild-type protein, sequence (P01112 whole entry): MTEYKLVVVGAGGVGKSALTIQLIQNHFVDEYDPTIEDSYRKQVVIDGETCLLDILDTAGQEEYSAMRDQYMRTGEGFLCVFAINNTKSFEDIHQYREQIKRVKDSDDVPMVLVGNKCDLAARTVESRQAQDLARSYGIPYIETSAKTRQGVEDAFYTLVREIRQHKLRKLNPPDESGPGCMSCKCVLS

Structure (SMILES) | Kd ([1]; SPR, Single Cycle Kinetics) | Kd [1, 5] | NRAS/KRAS (ratio of KD value for NRAS to KD value for KRAS) [2] | HRAS/KRAS (ratio of KD value for HRAS to KD value for KRAS) [3] | also measured
CCO[C@@H]1C[C@H]2C(=O)NC3(CCC3)C(=O)N(C)[C@@H](C3CCCC3)C(=O)N(CC)[C@H](C(=O)N3CCOCC3)CC(=O)N(C)[C@@H](Cc3ccccc3)C(=O)N[C@@H]([C@@H](C)CC)C(=O)N(C)CC(=O)N(C)[C@H]3CCCCCN(C3=O)[C@@H](Cc3ccc(C(F)(F)F)cc3)C(=O)N(C)CC(=O)N[C@@H](CCc3cc(F)c(C(F)(F)F)c(F)c3)C(=O)N2C1 [PP0950] | 6 nM | – | A (a compound having 10 or more and less than 20 is denoted as A) | B (a compound having 3 or more and less than 10 is denoted as B) | –
CC[C@H](C)[C@@H]1NC(=O)[C@H](CC)N(C)C(=O)C[C@@H](C(=O)N(C)C)N(C)C(=O)[C@H](C2CCCC2)N(C)C(=O)C2(CCCC2)NC(=O)[C@@H]2CCCN2C(=O)[C@H](CCc2cc(F)c(C(F)(F)F)c(F)c2)NC(=O)CN(C)C(=O)[C@H](Cc2ccc(C(F)(F)F)cc2)N2CC(C)[C@@H](C)C[C@@H](C2=O)N(C)C(=O)CN(C)C1=O (stereo partly drawn) [PP1349] | – | – | – | – | Kd [1, 4]: 0.09 nM; NRAS/KRAS (ratio of KD value for NRAS to KD value for KRAS) ([2]; KD ratio class): C (A compound having a KD ratio of 0.1 or more and less than 3 is denoted as C); HRAS/KRAS (ratio of KD value for HRAS to KD value for KRAS) ([3]; KD ratio class): B (a compound having 3 or more and less than 10 is denoted as B)
C=CC[C@H]1C(=O)N(CC=C)[C@@H](Cc2ccc(C)cc2)C(=O)N(C)CC(=O)N[C@@H](CCc2ccc(C(F)(F)F)c(Cl)c2)C(=O)N2CCC[C@H]2C(=O)NC2(CCCC2)C(=O)N(C)[C@@H](C2CCCC2)C(=O)N(C)[C@H](C(=O)N2CCOCC2)CC(=O)N(C)[C@@H](CC(C)C)C(=O)N[C@@H]([C@@H](C)CC)C(=O)N(C)CC(=O)N1C [PP0139] ([NMeL]I[Sar][NMeAllylGly][X10][Sar][hPhe(3-Cl-4-CF3)]P[Ac5c][NMeGly(cPent)][NMeD]-Morpholide; lactam N-11) | – | 230 nM | C (A compound having a KD ratio of 0.1 or more and less than 3 is denoted as C) | C (A compound having a KD ratio of 0.1 or more and less than 3 is denoted as C) | –
CCO[C@@H]1C[C@H]2C(=O)NC3(CCC3)C(=O)N(C)[C@@H](C3CCCC3)C(=O)N(C)[C@H](C(=O)N(C)CCOC)CC(=O)N(C)[C@@H](CC(C)C)C(=O)N[C@@H]([C@@H](C)CC)C(=O)N(C)CC(=O)N(C)[C@H]3C/C=C\CCN(C3=O)[C@@H](Cc3ccc(C(F)(F)F)cc3)C(=O)N(C)CC(=O)N[C@@H](CCc3ccc(Cl)c(Cl)c3)C(=O)N2C1 [PP1326] | – | – | – | – | Kd [1, 4]: 0.27 nM; NRAS/KRAS (ratio of KD value for NRAS to KD value for KRAS) ([2]; KD ratio class): AA (a compound having 20 or more is denoted as AA); HRAS/KRAS (ratio of KD value for HRAS to KD value for KRAS) ([3]; KD ratio class): A (a compound having 10 or more and less than 20 is denoted as A)
CCCN1C(=O)CN(C)C(=O)CN(C)C(=O)[C@H](C2CC(F)(F)C2)NC(=O)[C@H](CC(C)C)N(C)C(=O)C[C@@H](C(=O)N2CCOCC2)N(C)C(=O)[C@H](C2CCCC2)N(C)C(=O)C2(CCCC2)NC(=O)[C@@H]2CCCN2C(=O)[C@H](CCc2cc(F)c(C(F)(F)F)c(F)c2)NC(=O)CN(C)C(=O)[C@@H]1Cc1ccc(C(F)(F)F)cc1 [PP0769] ([NMeL][X13][Sar][Sar][NPrPhe(4-CF3)][Sar][hPhe(3,5-F2-4-CF3)]P[Ac5c][NMeGly(cPent)][NMeD]-Morpholide; lactam N-11) | – | 0.21 nM | – | – | NRAS/KRAS (ratio of KD value with respect to NRAS to KD value with respect to KRAS) [2]: B (a compound having 3 or more and less than 10 is denoted as B); HRAS/KRAS (ratio of KD value with respect to HRAS to KD value with respect to KRAS) [3]: C (A compound having a KD ratio of 0.1 or more and less than 3 is denoted as C)
CCCN1C(=O)CN(C)C(=O)CN(CC)C(=O)[C@H](C2CCCC2)NC(=O)[C@H](CC(C)C)N(C)C(=O)C[C@@H](C(=O)N2CCOCC2)N(C)C(=O)[C@H](C2CCCC2)N(C)C(=O)C2(CCCC2)NC(=O)[C@@H]2CCCN2C(=O)[C@H](CCc2ccc(C(F)(F)F)c(Cl)c2)NC(=O)CN(C)C(=O)[C@@H]1Cc1ccc(C(F)(F)F)cc1 [PP0293] ([NMeL][Gly(cPent)][NEtG][Sar][NPrPhe(4-CF3)][Sar][hPhe(3-Cl-4-CF3)]P[Ac5c][NMeGly(cPent)][NMeD]-Morpholide; lactam N-11) | – | 0.84 nM | B (a compound having 3 or more and less than 10 is denoted as B) | C (A compound having a KD ratio of 0.1 or more and less than 3 is denoted as C) | –
CC[C@H](C)[C@@H]1NC(=O)[C@@H]2CCCCCCc3ccc(cc3)C[C@@H](C(=O)N(C)CC(=O)N[C@@H](CCc3ccc(C(F)(F)F)c(OC)c3)C(=O)N3CC4(CC4)C[C@H]3C(=O)NC3(CC(C)(C)C3)C(=O)N(C)[C@@H](C3CCCC3)C(=O)N(C)[C@H](C(=O)N(C)C)CC(=O)N2C)N2CC/C=C\C[C@@H](C2=O)N(C)C(=O)CN(C)C1=O [PP3069] | 0.034 nM | – | A (a compound having 10 or more and less than 20 is denoted as A) | B (a compound having 3 or more and less than 10 is denoted as B) | –

Second part, led by results:

Kd ([1]; SPR, Single Cycle Kinetics) | Kd [1, 5] | Structure (SMILES) | NRAS/KRAS (ratio of KD value for NRAS to KD value for KRAS) [2] | HRAS/KRAS (ratio of KD value for HRAS to KD value for KRAS) [3] | also measured
– | 0.19 nM | CCCCN1C(=O)CN(C)C(=O)CN(C)C(=O)[C@H]([C@@H](C)CC)NC(=O)[C@H](CC(C)C)N(C)C(=O)C[C@@H](C(=O)N2CCOCC2)N(C)C(=O)[C@H](C2CCCC2)N(C)C(=O)C2(CCCC2)NC(=O)[C@@H]2CCCN2C(=O)[C@H](CCc2ccc(C(F)(F)F)c(Cl)c2)NC(=O)CN(C)C(=O)[C@@H]1Cc1ccc(C(F)(F)F)cc1 [PP0120] ([NMeL]I[Sar][Sar][X17][Sar][hPhe(3-Cl-4-CF3)]P[Ac5c][NMeGly(cPent)][NMeD]-Morpholide; lactam N-11) | B (a compound having 3 or more and less than 10 is denoted as B) | C (A compound having a KD ratio of 0.1 or more and less than 3 is denoted as C) | –
– | 0.35 nM | CCCN1C(=O)[C@@H]2CCN2C(=O)[C@H](C)N(C)C(=O)[C@H]([C@@H](C)CC)NC(=O)[C@H](CC(C)C)N(C)C(=O)C[C@@H](C(=O)N(C)C)NC(=O)[C@H](C2CCCC2)N(C)C(=O)C2(CCC2)NC(=O)[C@@H]2CC(F)(F)CN2C(=O)[C@H](CCc2ccc(C(F)(F)F)c(Cl)c2)NC(=O)CN(C)C(=O)[C@@H]1Cc1ccc(C(F)(F)F)cc1 [PP0382] ([NMeL]I[NMeA][Aze][NPrPhe(4-CF3)][Sar][hPhe(3-Cl-4-CF3)][Pro(4,4-F2)][Ac4c][NMeGly(cPent)]D-NMe2; lactam N-11) | C (A compound having a KD ratio of 0.1 or more and less than 3 is denoted as C) | B (a compound having 3 or more and less than 10 is denoted as B) | –
0.11 nM | – | C#CC[C@H]1C(=O)N[C@@H]([C@@H](C)CC)C(=O)N(C)CC(=O)N(C)[C@H]2C/C=C\CCN(C2=O)[C@@H](Cc2ccc(C(F)(F)F)cc2)C(=O)N(C)CC(=O)N[C@@H](CCc2cc(F)c(C(F)(F)F)c(F)c2)C(=O)N2C[C@H](OCC)C[C@H]2C(=O)NC2(CC(C)(C)C2)C(=O)N(C)[C@@H](C2CCCC2)C(=O)N(C)[C@H](C(=O)N(C)CCC)CC(=O)N1C [PP2074] | A (a compound having 10 or more and less than 20 is denoted as A) | A (a compound having 10 or more and less than 20 is denoted as A) | –
2.7 nM | – | CCO[C@@H]1C[C@H]2C(=O)NC3(CCC3)C(=O)N(C)[C@@H](C3CCCC3)C(=O)N(C)[C@H](C(=O)N3CCOCC3)CC(=O)N(C)[C@@H](Cc3ccccc3Cl)C(=O)N[C@@H]([C@@H](C)CC)C(=O)N(C)CC(=O)N(C)[C@H]3CCCCCN(C3=O)[C@@H](Cc3ccc(C(F)(F)F)cc3)C(=O)N(C)CC(=O)N[C@@H](CCc3cc(F)c(C(F)(F)F)c(F)c3)C(=O)N2C1 [PP0929] | A (a compound having 10 or more and less than 20 is denoted as A) | B (a compound having 3 or more and less than 10 is denoted as B) | –
– | 0.013 nM | CCO[C@@H]1C[C@H]2C(=O)NC3(CCC3)C(=O)N(C)[C@@H](C3CCCC3)C(=O)N(C)[C@H](C(=O)N(C)C)CC(=O)N(C)[C@@H](Cc3cccnc3)C(=O)N[C@@H]([C@@H](C)CC)C(=O)N(C)CC(=O)N(C)[C@H]3CCCCN(C3=O)[C@@H](Cc3ccc(C(F)(F)F)cc3)C(=O)N(C)CC(=O)N[C@@H](CCc3cc(F)c(C(F)(F)F)c(F)c3)C(=O)N2C1 [PP0703] | – | – | NRAS/KRAS (ratio of KD value with respect to NRAS to KD value with respect to KRAS) [2]: C (A compound having a KD ratio of 0.1 or more and less than 3 is denoted as C); HRAS/KRAS (ratio of KD value with respect to HRAS to KD value with respect to KRAS) [3]: B (a compound having 3 or more and less than 10 is denoted as B)
0.18 nM | – | CCO[C@@H]1C[C@H]2C(=O)NC3(CCC3)C(=O)N(C)[C@@H](C3CCCC3)C(=O)N(C)[C@H](C)CC(=O)N(C)[C@@H](CC)C(=O)N[C@@H]([C@@H](C)CC)C(=O)N(C)CC(=O)N(C)[C@H]3C/C=C\CCN(C3=O)[C@@H](Cc3ccc(C(F)(F)F)cc3)C(=O)N(C)CC(=O)N[C@@H](CCc3cc(F)c(C(F)(F)F)c(F)c3)C(=O)N2C1 [PP1095] | B (a compound having 3 or more and less than 10 is denoted as B) | B (a compound having 3 or more and less than 10 is denoted as B) | –
